Measurements as given in patent US3992391A, “1,3-Disubstituted thiourea compounds and preparation thereof” (priority 1972, dated 1976).
Counter-ions that a name gives are not always drawn.

Columns and labels:
Type in all cases: in vivo
Na^+, K^+ - ATPase = test: Brain Na^+, K^+ - ATPase after triethyl tin sulfate cerebral edema; settings: rats
Experimental: (§1) Cerebral edema was induced in rats by a triethyl tin sulfate (5.0 mg/kg, i.p.) made on the whole brain. Edema was measured by the increase in water content, lactate, phosphorylase activity and the decrease in glycogen, Na^+, K^+ - ATPase activity of the whole brain.
(§2) 1-(3'-Pyridyl)-3-(2'-hydroxyethyl)thiourea HCl was given 1 hour before and 24, 48 hours after the lesion treatment and the animals were killed by decapitation 72 hours after the lesion treatment.

[1] = tested on: cerebral carbohydrate and lactate metabolism; test: Brain glycogen and lactate after triethyl tin sulfate cerebral edema; settings: rats
Experimental: as §1, §2

phosphorylase [2] = test: Cerebral phosphorylase after cold injury (freezing lesion cerebral edema); settings: rats
Experimental: Cerebral edema was induced in rats by a freezing lesion (dry ice) made on the exposed dura of unilateral hemisphere. Edema was measured by the increase in water content of gray and white matter, the increase in phosphorylase activity and the decrease in Na^+, K^+ - ATPase activity of the injured brain. 1-(3'-Pyridyl)-3-(2'-hydroxyethyl)thiourea HCl was given 1 hour before and 24 hours after, and the animals were killed by decapitation 48 hours after the lesion treatment.

phosphorylase [3] = test: Brain phosphorylase after triethyl tin sulfate cerebral edema; settings: rats
Experimental: as §1, §2

[4] = Haemodynamic action in anesthetized dogs
Experimental: To study of 1-(3'-pyridyl)-3-(2'-hydroxyethyl)thiourea HCl on the haemodynamic action, five dogs of either sex were used under sodium pentobarbital anesthesia (30 mg/kg i.v.), the common carotid artery blood flow and the femoral artery blood flow were measured by the electromagnetic flow meter and the systolic blood pressure in the femoral artery was recorded with the pressure transducer.

`OCCNC(=S)Nc1cccnc1` [1-(3'-pyridyl)-3-(2'-hydroxyethyl)thiourea hydrochloride] showed an ATPase (Na^+, K^+ - ATPase; 30 mg/kg p.o.) of 1.146 μ moles Pi/g/hr, an ATPase (Na^+, K^+ - ATPase; 100 mg/kg p.o.) of 1.193 μ moles Pi/g/hr and an ATPase (Na^+, K^+ - ATPase; 300 mg/kg p.o.) of 1.246 μ moles Pi/g/hr. For the same compound, the “effect on the decrease in Na^+, K^+ - ATPase activity of the injured brain” value (Na^+, K^+ - ATPase; 100 and 300 mg/kg orally) was “antagonized”, the Glycogen ([1]; 30 mg/kg p.o.) was 1.03 mg/g and the Lactate ([1]; 30 mg/kg p.o.) was 72.5 µg/g. For the same compound, the Glycogen ([1]; 100 mg/kg p.o.) was 1.17 mg/g, the Lactate ([1]; 100 mg/kg p.o.) was 65.5 µg/g and the Glycogen ([1]; 300 mg/kg p.o.) was 1.27 mg/g. For the same compound, the Lactate ([1]; 300 mg/kg p.o.) was 61.0 µg/g, the “effect on the decrease in glycogen level of the injured brain” value ([1]; 100 and 300 mg/kg orally) was “antagonized” and the “effect on the increase in lactate level of the injured brain” value ([1]; 100 and 300 mg/kg orally) was “antagonized”. The “Phosphorylase A/T × 100 (Active phosphorylase/Total phosphorylase)” value (phosphorylase [2]; 100 mg/kg p.o.) was 68.5 ± 2.5, the “Phosphorylase, Active” value (phosphorylase [2]; 100 mg/kg p.o.) was 0.242 ± 0.019 units/g and the “Phosphorylase A/T × 100 (Active phosphorylase/Total phosphorylase)” value (phosphorylase [2]; 300 mg/kg p.o.) was 66.4 ± 2.7. The “Phosphorylase, Active” value (phosphorylase [2]; 300 mg/kg p.o.) was 0.220 ± 0.057 units/g, the “effect on the increase in phosphorylase activity” value (phosphorylase [2]; 300 mg/kg p.o.) was “protective effect” and the “Phosphorylase A/T × 100 (Active phosphorylase/Total phosphorylase)” value (phosphorylase [3]; 30 mg/kg p.o.) was 73.3. For the same compound, the “Phosphorylase, Active” value (phosphorylase [3]; 30 mg/kg p.o.) was 0.197 units/g, the “Phosphorylase A/T × 100 (Active phosphorylase/Total phosphorylase)” value (phosphorylase [3]; 100 mg/kg p.o.) was 71.5 and the “Phosphorylase, Active” value (phosphorylase [3]; 100 mg/kg p.o.) was 0.192 units/g. The “Phosphorylase A/T × 100 (Active phosphorylase/Total phosphorylase)” value (phosphorylase [3]; 300 mg/kg p.o.) was 67.8, the “Phosphorylase, Active” value (phosphorylase [3]; 300 mg/kg p.o.) was 0.187 units/g and the “haemodynamic effects in comparison with papaverine hydrochloride” value [4] was “relatively weak”. For the same compound, the “action to the common carotid artery blood flow” value ([4]; 0.1 - 1.0 mg/kg intra-common carotid artery) was 12 - 39%, the “carotid artery blood flow increase” value ([4]; 3 - 30 mg/kg intravenously) was 6 - 24% and the “femoral artery blood flow increase” value ([4]; 3 - 30 mg/kg intravenously) was 4 - 18%. For the same compound, the blood pressure decrease ([4]; 3 - 30 mg/kg intravenously, systolic, femoral artery) was 8 - 14%.
